Read-outs that look alike come from different tables or passages of the source.
Columns and labels:
Type in all cases: cell-based
NCI-H226 cells [1] = test: Cell proliferation and viability assay (CPA) in NCI-H226 cells; details: up to 6 d; for IC50: Homo sapiens, 144 h, read-out: CPA NCI-H226 IC50 Ave
Procedure: Compound potency and efficacy in inhibiting cell proliferation and viability was assessed in multiple cell lines. For example, NCI-H226 cells (ATCC #CRL-5826) were seeded at 2000 cells in 200 μL medium per well of a 96-well plate (Corning #3610) and incubated at 37° C. for 24 hours, then treated with serial diluted compounds for up to 6 d. Viable cells were measured by CellTiter-Glo 2.0 Cell Viability Assay (Promega #G9243), and the luminescence signal was read using an EnSight Multimode plate reader (PerkinElmer, model 9MLDHH34000000, integration time 100 ms) with Kaleido 3.0. software. For data analysis, dose-dependent curves were plotted as “inhibition” (% of DMSO-treated control wells), and were fitted by four-parametric model in GraphPad Prism to obtain IC50 values. […]

H2052 cells = test: Cell proliferation and viability assay (CPA) in H2052 cells; details: for IC50: Homo sapiens, NCI-H2052, read-out: CPA H2052 IC50 Ave
Procedure: (§1) Compound potency and efficacy in inhibiting cell proliferation and viability was assessed in multiple cell lines. For example, NCI-H226 cells (ATCC #CRL-5826) were seeded at 2000 cells in 200 μL medium per well of a 96-well plate (Corning #3610) and incubated at 37° C. for 24 hours, then treated with serial diluted compounds for up to 6 d. Viable cells were measured by CellTiter-Glo 2.0 Cell Viability Assay (Promega #G9243), and the luminescence signal was read using an EnSight Multimode plate reader (PerkinElmer, model 9MLDHH34000000, integration time 100 ms) with Kaleido 3.0. software. For data analysis, dose-dependent curves were plotted as “inhibition” (% of DMSO-treated control wells), and were fitted by four-parametric model in GraphPad Prism to obtain IC50 values.
(§2) Alternatively, cells were plated at 2000 cells in 200 μL medium per well of a 96-well plate (Corning #3585) overnight, treated with compound for 7 days, cell density images taken by Incycte S3 live cell analysis instrument (Sartorius) every 24 hours at the same time. Images were analyzed by Incucyte's AI-driven software to get C “% confluence” for every image. Dose-dependent curves were plotted as “% inhibition” (% o of DMSO-treated control wells) and were fitted by four-parametric model in GraphPad Prism to obtain IC50 values.

TEAD1 [2] = test: MCF-7 TEAD1-luciferase reporter assay (MCF7-TEAD-Luc); details: MCF7 cells, overnight; for IC50: Homo sapiens; for TEAD1-Luc MCF7: Max Inhibition: % of DMSO-treated control
Procedure, shortened: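 MCF7 cells with a TEAD luciferase reporter were seeded at 10,000 per well, grown 24 hours at 37° C, then treated overnight with serially diluted compound. Luciferase signal was normalized as % inhibition relative to DMSO controls, and IC50 came from a four-parameter fit.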

TEAD3 = TEAD3 (Homo sapiens, UniProt Q99594); test: Palmitoylation assay, TEAD3 (HEK293T cells); design: unspecified tag; expressed in transfected cells; host or cells: HEK293T; details: 3 um compound, 24 hours
Procedure: (§3) Tagged TEAD constructs were cloned in pTriEx-6 (Novagen #71559) and transiently transfected into HEK293T cells for 24 hours. Then cells were treated with compounds for 24 hours, or treated with compounds plus 25 μM alkyne palmitic acid (for palmitoylation assay), and cell pellets were collected. Cells were lysed in lysis Buffer (100 mM Tris-HCl, 150 mM NaCl, 1% Triton, 5 mg/mL protease inhibitor cocktail), centrifuged for 10 min at 15000 g, TEAD proteins were pulled down and subjected to click-chemistry with TAMRA azide (Click Chemistry Tools #AZ109) to label compound-modified protein. Protein bands were separated by SDS-gel electrophoresis, target bands at expected molecular size were visualized using BioRad ChemiDoc Imaging system, band intensities were quantified by Image Studio.

TEAD2 = TEAD2 (Homo sapiens, UniProt Q15562); test: Palmitoylation assay, TEAD2 (HEK293T cells); design: unspecified tag; expressed in transfected cells; host or cells: HEK293T; details: 3 um compound, 24 hours
Procedure: as §3

TEAD4 = TEAD4 (Homo sapiens, UniProt Q15561); test: Palmitoylation assay, TEAD4 (HEK293T cells); design: unspecified tag; expressed in transfected cells; host or cells: HEK293T; details: 3 um compound, 24 hours
Procedure: as §3

TEAD1 [3] = test: Palmitoylation assay, TEAD1 (HEK293T cells); details: 3 um compound, 24 hours
Procedure: as §3

NCI-H226 cells [4] = test: Cell proliferation and viability assay (CPA) in NCI-H226 cells; details: up to 6 d
Procedure: as §1, §2

Chain of TEAD3 (Q99594 whole entry): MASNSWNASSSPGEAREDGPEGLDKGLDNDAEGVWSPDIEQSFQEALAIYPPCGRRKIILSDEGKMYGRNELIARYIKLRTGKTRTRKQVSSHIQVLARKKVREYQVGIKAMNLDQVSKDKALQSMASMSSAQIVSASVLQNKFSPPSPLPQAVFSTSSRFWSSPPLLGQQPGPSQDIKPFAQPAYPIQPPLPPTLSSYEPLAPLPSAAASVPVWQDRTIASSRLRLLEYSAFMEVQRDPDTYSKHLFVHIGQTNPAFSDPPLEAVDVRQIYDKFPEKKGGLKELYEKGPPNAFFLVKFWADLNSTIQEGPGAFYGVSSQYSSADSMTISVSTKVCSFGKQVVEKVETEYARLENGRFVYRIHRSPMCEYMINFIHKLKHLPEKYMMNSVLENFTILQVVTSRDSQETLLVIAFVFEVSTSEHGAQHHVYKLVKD
Chain of TEAD4 (Q15561 whole entry): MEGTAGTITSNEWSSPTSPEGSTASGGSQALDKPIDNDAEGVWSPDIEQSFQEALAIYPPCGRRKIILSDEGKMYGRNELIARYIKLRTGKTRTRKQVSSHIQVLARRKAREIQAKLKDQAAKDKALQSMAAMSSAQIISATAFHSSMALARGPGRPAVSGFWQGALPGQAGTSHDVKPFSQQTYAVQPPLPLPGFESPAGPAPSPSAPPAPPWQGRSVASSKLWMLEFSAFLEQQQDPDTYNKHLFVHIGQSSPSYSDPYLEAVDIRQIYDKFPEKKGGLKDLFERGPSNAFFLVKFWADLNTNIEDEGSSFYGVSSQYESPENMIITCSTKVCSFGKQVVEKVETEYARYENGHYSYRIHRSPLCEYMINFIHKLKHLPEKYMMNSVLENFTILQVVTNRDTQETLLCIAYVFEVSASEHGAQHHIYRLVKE
Chain of TEAD2 (Q15562 whole entry): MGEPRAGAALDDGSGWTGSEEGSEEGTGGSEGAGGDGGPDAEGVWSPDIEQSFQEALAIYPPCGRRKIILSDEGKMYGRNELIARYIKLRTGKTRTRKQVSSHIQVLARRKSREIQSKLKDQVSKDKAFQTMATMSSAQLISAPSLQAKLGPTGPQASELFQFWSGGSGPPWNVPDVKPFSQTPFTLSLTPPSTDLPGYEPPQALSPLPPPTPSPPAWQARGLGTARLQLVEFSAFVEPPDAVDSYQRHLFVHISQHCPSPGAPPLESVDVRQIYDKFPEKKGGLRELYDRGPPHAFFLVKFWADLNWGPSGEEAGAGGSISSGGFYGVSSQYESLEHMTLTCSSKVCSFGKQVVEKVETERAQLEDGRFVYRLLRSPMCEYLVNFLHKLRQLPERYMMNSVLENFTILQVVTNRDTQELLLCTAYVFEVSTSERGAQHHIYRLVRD

| SMILES | IC50 (NCI-H226 cells [1]) | CPA NCI-H226 Max Inh Ave (NCI-H226 cells [1]) | CPA H2052 Max Inh Ave (H2052 cells) | IC50 (H2052 cells) | IC50 (TEAD1 [2]) | TEAD1-Luc MCF7: Max Inhibition (TEAD1 [2]) | TEAD3 Inh (palmitoylation) (TEAD3) | TEAD2 Inh (palmitoylation) (TEAD2) | TEAD4 Inh (palmitoylation) (TEAD4) | TEAD1 Inh (palmitoylation) (TEAD1 [3]) | IC50 (NCI-H226 cells [4]; Homo sapiens, 144 h, read-out: CPA NCI-H226 IC50 Ave) | CPA NCI-H226 Max Inh Ave (NCI-H226 cells [4]) |
| --- | --- | --- | --- | --- | --- | --- | --- | --- | --- | --- | --- | --- |
| C=CC(=O)N1CC(C#N)(/C=C/c2cc(C(F)(F)F)on2)C1 [Example 34, 1-acryloyl-3-(2-(5-(trifluoromethyl)isoxazol-3-yl)vinyl)azetidine-3-carbonitrile] | 100 to 500 nM | A (A ≥ 75%) | A (A ≥ 75%) | ≤ 100 nM | 10 to 100 nM | A (A ≥ 75%) |  |  |  |  |  |  |
| C=CC(=O)N1CC(/C=C/c2cc(C(F)(F)F)on2)C1 [Example 21, (E)-1-(3-(2-(5-(trifluoromethyl)isoxazol-3-yl)vinyl)azetidin-1-yl)prop-2-en-1-one] | 100 to 500 nM | A (A ≥ 75%) | B (75% > B ≥ 50%) | ≤ 100 nM | ≤ 10 nM | A (A ≥ 75%) | 96% | 70% | 33% | 96% |  |  |
| C=CC(=O)N1CC(C/C=C\c2cc(C(F)(F)F)on2)C1 [Example 1, 1-{3-[(2Z)-3-[5-(trifluoromethyl)-1,2-oxazol-3-yl]prop-2-en-1-yl]azetidin-1-yl}prop-2-en-1-one] | 100 to 500 nM | B (75% > B ≥ 50%) | B (75% > B ≥ 50%) | ≤ 100 nM | ≤ 10 nM | A (A ≥ 75%) |  |  |  |  |  |  |
| C=CC(=O)N1CC(/C=C\c2cnc(C(F)(F)F)s2)C1 [Example 12] |  |  |  | 100 to 500 nM | 10 to 100 nM |  |  |  |  |  |  |  |
| C=CC(=O)N1CC[C@H](C/C=C/c2ccc(C(F)(F)F)cc2)C1 [Example 85] |  |  | B (75% > B ≥ 50%) | ≤ 100 nM | ≤ 10 nM | A (A ≥ 75%) |  |  |  |  | 100 to 500 nM | B (75% > B ≥ 50%) |
| C=CC(=O)N1CC(/C=C/c2ccc(C(F)(F)F)cc2)C(OC)C1 (stereo not shown) [Example 36, 1-(3-methoxy-4-(4-(trifluoromethyl)styryl)pyrrolidin-1-yl)prop-2-en-1-one] | 100 to 500 nM | B (75% > B ≥ 50%) | B (75% > B ≥ 50%) | ≤ 100 nM | 10 to 100 nM | A (A ≥ 75%) |  |  |  |  |  |  |
| C#Cc1cc(/C=C/C2CN(C(=O)C=C)C2)ccc1C(F)(F)F [Example 45, (E)-1-(3-(3-ethynyl-4-(trifluoromethyl)styryl)azetidin-1-yl)prop-2-en-1-one] | 100 to 500 nM | B (75% > B ≥ 50%) | B (75% > B ≥ 50%) | 100 to 500 nM | 10 to 100 nM | A (A ≥ 75%) |  |  |  |  |  |  |
| C=CC(=O)N1CC[C@](C)(C#Cc2ccc(C(F)(F)F)cc2)C1 (single isomer, unassigned) [Example 60, 1-[(3R*)-3-methyl-3-{2-[4-(trifluoromethyl)phenyl]ethynyl}pyrrolidin-1-yl]prop-2-en-1-one] | ≤ 100 nM | A (A ≥ 75%) | A (A ≥ 75%) | ≤ 100 nM | 10 to 100 nM | A (A ≥ 75%) |  |  |  |  |  |  |
| C=CC(=O)N1CC[C@@H](C#Cc2ccc(C(F)(F)F)cc2)C1 (single isomer, unassigned) [Example 67, (S*)-1-(3-((4-(trifluoromethyl)phenyl)ethynyl)pyrrolidin-1-yl)prop-2-en-1-one] | ≤ 100 nM | A (A ≥ 75%) | A (A ≥ 75%) | ≤ 100 nM | ≤ 10 nM | A (A ≥ 75%) |  |  |  |  |  |  |
| C=CC(=O)N1CC[C@@](C)(C#Cc2ccc(C(F)(F)F)cc2)C1 (single isomer, unassigned) [Example 61, 1-[(3S*)-3-methyl-3-{2-[4-(trifluoromethyl)phenyl]ethynyl}pyrrolidin-1-yl]prop-2-en-1-one] | ≤ 100 nM | B (75% > B ≥ 50%) | A (A ≥ 75%) | ≤ 100 nM | 10 to 100 nM | A (A ≥ 75%) |  |  |  |  |  |  |
| C=CC(=O)N1CC(/C=C/c2cnc(C(F)(F)F)s2)C1 [Example 13, 1-{3-[(E)-2-[2-(trifluoromethyl)-1,3-thiazol-5-yl]ethenyl]azetidin-1-yl}prop-2-en-1-one] | ≤ 100 nM | B (75% > B ≥ 50%) | B (75% > B ≥ 50%) | ≤ 100 nM | ≤ 10 nM | A (A ≥ 75%) |  |  |  |  |  |  |
| C=CC(=O)N1C[C@@H](C)[C@H](/C=C/c2ccc(C(F)(F)F)cc2)C1 (stereo in doubt) [Example 39, 1-((3S*,4S*)-3-methyl-4-((E)-4-(trifluoromethyl)styryl)pyrrolidin-1-yl)prop-2-en-1-one] |  |  |  |  | 10 to 100 nM | A (A ≥ 75%) | 90% | 32% | 18% | 89% |  |  |
| C=CC(=O)N1CC[C@](C#Cc2ccc(C(F)(F)F)cc2)(OC)C1 (single isomer, unassigned) [Example 59, (R*)-1-(3-methoxy-3-((4-(trifluoromethyl)phenyl)ethynyl)pyrrolidin-1-yl)prop-2-en-1-one] | ≤ 100 nM | A (A ≥ 75%) | B (75% > B ≥ 50%) | 100 to 500 nM | 10 to 100 nM | A (A ≥ 75%) |  |  |  |  |  |  |
| C=CC(=O)N1CC(/C=C/c2cccc(C(F)(F)F)c2)C1 [Example 14] |  |  | B (75% > B ≥ 50%) | 100 to 500 nM | 10 to 100 nM | B (75% > B ≥ 50%) |  |  |  |  |  |  |
| C=CC(=O)N1CC(/C=C/c2ccc(C(F)(F)F)cn2)C1 [Example 11, 1-(3-(2-(5-(trifluoromethyl)pyridin-2-yl)vinyl)azetidin-1-yl)prop-2-en-1-one] | 100 to 500 nM | A (A ≥ 75%) | A (A ≥ 75%) | ≤ 100 nM | ≤ 10 nM | A (A ≥ 75%) |  |  |  |  |  |  |
| C=CC(=O)N1CC[C@@H](/C=C/c2ccc(C(F)(F)F)cc2)C1 [Example 9] |  |  |  | 100 to 500 nM | 10 to 100 nM |  |  |  |  |  |  |  |
| C=CC(=O)N1CC(c2cc3ccc(C(F)(F)F)cc3o2)C1 [Example 49, 1-{3-[6-(trifluoromethyl)-1-benzofuran-2-yl]azetidin-1-yl}prop-2-en-1-one] |  |  |  |  | 100 to 500 nM | B (75% > B ≥ 50%) |  |  |  |  |  |  |
| C=CC(=O)N1CC(/C=C/c2ccc(C(F)(F)F)c(F)c2)C1 [Example 4, 1-{3-[(E)-2-[3-fluoro-4-(trifluoromethyl)phenyl]ethenyl]azetidin-1-yl}prop-2-en-1-one] |  |  |  |  | ≤ 10 nM | A (A ≥ 75%) |  |  |  |  |  |  |

Source: patent US20260347319A1, “YAP/TAZ-TEAD ONCOPROTEINS INHIBITORS” (BridGene Biosciences, Inc., priority 2022, published 2026)
